Results taken from patent US8785430B2, “Compound that can inhibit UBC13-UEV interactions, pharmaceutical compositions and therapeutic uses” (Consejo Superior de Investigaciones Cientificas, priority 2006, dated 2014).

Columns and labels:
[1] = tested on: interaction between p53 and large T; assay: Two-hybrid assay in yeasts, positive interaction control p53 - large T; format: cell-based; details: 100 μM
Method: Each of the 52 mixtures of peptoids was analyzed by means of this process in triplicate, in three independent experiments. The interaction between UBC13 and UEV1 in the absence of peptoids and the interaction between p53 and the SV40 large T protein were used as positive interaction controls in all these assays. The laminin and […] proteins were used as a negative control. The β-galactosidase activities for the UBC13-UEV1 interaction were standardized with respect to the β-galactosidase activities of the corresponding positive control thereof (p53-large T). The activities β-galactosidase standardized in that manner are illustrated in FIG. 2.
The effect of compounds Ia and Ib on the UBC13-UEV1 interaction in two-hybrid assays in yeasts was performed by incubating cells of the Saccharomyces cerevisiae strain AH109, grown in a selective medium, with 100 μM of either compound. The interaction of Sv40 large T and p53 proteins was used as positive interaction control. The intensity of the interactions was determined colorimetrically by means of detecting the β-galactosidase activity, using O-nitrophenyl-p-galactopyranoside (ONPG) as a substrate, each determination being performed in triplicate. […]

[2] = target: T1, binding of UEV1 to GST-UBC13 (Homo sapiens, UniProt P61088); assay: Purified recombinant protein interaction assay, UEV1 binding to GST-UBC13 on glutathione-Sepharose; details: for UEV1 in the fraction which is eluted and not bound to GST-UBC13: 100 μM; for inhibition of the interaction of UEV1 with UBC13 at lower concentrations: much lower concentrations, of up to 10 nM
T1 construct: made in house; host or cells: Escherichia coli BL21
T1 sequence (P61088 1-152): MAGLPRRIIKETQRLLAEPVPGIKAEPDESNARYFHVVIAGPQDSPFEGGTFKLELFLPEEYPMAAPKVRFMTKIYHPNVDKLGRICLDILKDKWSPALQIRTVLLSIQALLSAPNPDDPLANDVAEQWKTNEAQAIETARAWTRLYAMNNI
Method: To determine the activity of these compounds in acellular assays, protein-protein interaction experiments were performed with recombinant proteins produced in Escherichia coli. To express UBC13 and UEV1, bacterial cells of the E. coli strain BL21 were transformed with plasmids pGEX-4T1-UBC13 or pGEX-4T3-UEV1, transformed colonies being selected by means of growth in plates with ampicillin (100 μg/mL). Individual colonies were transferred to 3 L of LB medium without antibiotics, being grown with stirring at 37° C. until the culture reached the exponential phase (OD600˜0.6), at which time the expression of the recombinant proteins was induced by means of adding isopropyl […] (IPTG, Sigma I-6758) at a concentration of 1 mM for 5 hours to the culture. The cultures were transferred to tubes, centrifuged and the cell pellets were resuspended in twice their volume of phosphate buffered saline (PBS) at pH 7.4 and were broken in a Cell Disruptor instrument (Constant Systems). The cell lysates were filtered through cellulose acetate filters with […] (Millipore SLHA033SS) and were applied to GSTrap FF columns (Amersham Biosciences 17-5131-01). In the case of UEV1, the protein bound specifically to the column was subjected to enzymatic digestion on the same column with 50 units of thrombin (Amersham Biosciences 27-0846-01) at 25° C. overnight. A HiTrapBenzamidine FF column (Amersham Biosciences 27-0846-01) was coupled to the previous column, such that the GST unit was trapped in the first column, and the thrombin in the second column. Then the UEV1 protein was eluted, without the GST portion, followed by a subsequent step of purification by means of gel filtration chromatography with a Superdex 75 column. The GST-UBC13 recombinant protein was expressed as indicated above, being purified by means of affinity chromatography in GSTrap FF columns, followed by filtration chromatography in Superdex 75. The fractions corresponding to the purified proteins were concentrated by means of centrifugation in Centricon YM-10 columns (Millipore 4205), being stored at 4° C. until their use.
To determine the effects of compounds Ia and Ib on the interaction of UBC13 with UEV1, 2 μL of the GST-UBC13 chimeric recombinant protein, at a concentration of […] in a 50 mM Hepes buffer, 100 mM NaCl, 1 mM EDTA, 0.5 mM DTT at pH 7.6 were pre-incubated for 30 minutes at room temperature with the compounds Varubin, Ib or the cyclic control compound VIII-N6-2-1C at final concentrations of 10 nM, 100 nM, 1 μM, 10 μM or 100 μM. […]

Row | SMILES | inhibition of the control interaction between p53 and large T [1] | UEV1 in the fraction which is eluted and not bound to GST-UBC13 [2] | inhibition of the interaction of UEV1 with UBC13 at lower concentrations [2]
1 | NC(=O)CN(CCc1ccccn1)C(=O)C1CC(=O)N(CCc2ccc(F)cc2)CC(=O)N1CCc1ccc(F)cc1 (stereo not drawn) [Ia, N-aminocarbamoylmethyl-N-(2′-(2″pyridyl)ethyl)-1,4-bis[2′-(4″-fluorophenyl)ethyl]-3,7-dioxo-[1,4]diazepane-5-carboxamide] | Neither of these two compounds inhibits the interaction | up to 60% | efficient inhibition
2 | NC(=O)CN(CCc1ccccn1)C(=O)CC1C(=O)N(CCc2ccc(F)cc2)CC(=O)N1CCc1ccc(F)cc1 (stereo not drawn) [Ib, 1,4-bis[2′-(4″-fluorophenyl)ethyl]-2-[N-aminocarbonylmethyl-N-(2′-(2″-pyridyl)ethyl)-carbonylmethyl]piperazine-3,6-dione] | Neither of these two compounds inhibits the interaction | ≤ 40% | efficient inhibition
